Reference: ChEMBL document CHEMBL5316327, “Design and Synthesis of Orally Active Quinolyl Pyrazinamides as Sigma 2 Receptor Ligands for the Treatment of Pancreatic Cancer” (J Med Chem, 2023)
pKi: −log10 of the molar value. Active and inactive are the calls of the source. The rule behind the calls is not given here.

How the values were obtained:
MIA PaCa-2 [1] = assay: Induction of apoptosis in human MIA PaCa-2 cells assessed as viable cells at 5.0 uM measured after 48 hrs by Annexin V-Alexa Fluor 488/propidium iodide staining based flow cytometry (reference value: 82.23%); format: functional; conditions: read-out: Activity
MIA PaCa-2 [2] = assay: Induction of cell cycle arrest in human MIA PaCa-2 cells assessed as accumulation of cells in S phase at 10 uM measured after 24 hrs by propidium iodide staining-based flow cytometric analysis (reference value: 31%); format: functional
[3] = target: 5-hydroxytryptamine receptor 1B (Homo sapiens, UniProt P28222); assay: Binding affinity to 5-HT1B receptor (unknown origin) assessed as inhibition constant
MIA PaCa-2 [4] = assay: Induction of cell cycle arrest in human MIA PaCa-2 cells assessed as accumulation of cells in G0/G1 phase at 1 uM measured after 24 hrs by propidium iodide staining-based flow cytometric analysis (reference value: 53%); format: functional
MIA PaCa-2 [5] = assay: Synergistic cytotoxicity in human MIA PaCa-2 cells at upto 1 uM measured after 7 days in presence of oxaliplatin by crystal violet staining based analysis; format: functional, cell-based; conditions: time 7.0 day
[6] = target: Beta-1 adrenergic receptor (Homo sapiens, UniProt P08588); assay: Binding affinity to beta1 receptor (unknown origin) assessed as inhibition constant
HCT-116 [7] = assay: Induction of cell cycle arrest in human HCT-116 cells assessed as accumulation of cells in G0/G1 phase at 10 uM measured after 24 hrs by propidium iodide staining-based flow cytometric analysis (reference value: 43%); format: functional
HCT-116 [8] = assay: Induction of apoptosis in human HCT-116 cells assessed as necrotic cells at […] measured after 48 hrs by Annexin V-Alexa Fluor 488/propidium iodide staining based flow cytometry (reference value: 9.06%); format: functional; conditions: dose 2.5 µM
MIA PaCa-2 [9] = assay: Synergistic cytotoxicity in human MIA PaCa-2 cells at upto 1 uM measured after 7 days in presence of doxorubicin by crystal violet staining based analysis; format: functional, cell-based; conditions: time 7.0 day
MIA PaCa-2 [10] = assay: Additive ferroptosis activity in human MIA-PaCa-2 cells at upto 1 uM measured after 7 days in presence of deferoxamine by crystal violet staining based analysis; format: functional, cell-based; conditions: time 7.0 day
HCT-116 [11] = assay: Induction of cell cycle arrest in human HCT-116 cells assessed as accumulation of cells in S phase at 5 uM measured after 24 hrs by propidium iodide staining-based flow cytometric analysis (reference value: 47%); format: functional
MIA PaCa-2 [12] = assay: Inhibition of colony formation in human MIA PaCa-2 cells at 0.04 to 30 uM pretreated with ammonium tetrathiomolybdate for 4 hrs followed by compound addition and measured after 6 days; format: functional, cell-based; conditions: dose 0.04-30 µM, time 6.0 day
HCT-116 [13] = assay: Antagonistic cytotoxicity against human HCT-116 cells at upto 1 uM measured after 6 days in presence of elesclomol by crystal violet staining based analysis; format: functional, cell-based; conditions: time 6.0 day
[14] = Volume of distribution at steady state in CD-1 mouse plasma at 10 mg/kg, iv; format: ADME, organism-based; conditions: read-out: Vdss
[15] = Cytotoxicity against HFF-1 cells measured after 72 hrs by MTT assay; format: toxicity, cell-based; conditions: human
MIA PaCa-2 [16] = assay: Induction of apoptosis in human MIA PaCa-2 cells assessed as early apoptotic cells at 5.0 uM measured after 48 hrs by Annexin V-Alexa Fluor 488/propidium iodide staining based flow cytometry (reference value: 4.11%); format: functional
HCT-116 [17] = assay: Induction of apoptosis in human HCT-116 cells assessed as viable cells at 1.0 uM measured after 48 hrs by Annexin V-Alexa Fluor 488/propidium iodide staining based flow cytometry (reference value: 79.69%); format: functional; conditions: read-out: Activity
HCT-116 [18] = assay: Synergistic cytotoxicity against human HCT-116 cells at upto 1 uM measured after 6 days in presence of silver acetate by crystal violet staining based analysis; format: functional, cell-based; conditions: time 6.0 day
MIA PaCa-2 [19] = assay: Synergistic cytotoxicity in human MIA PaCa-2 cells at upto 1 uM measured after 7 days in presence of cisplatin by crystal violet staining based analysis; format: functional, cell-based; conditions: time 7.0 day
[20] = target: 5-hydroxytryptamine receptor 2A (Homo sapiens, UniProt P28223); assay: Binding affinity to 5-HT2A receptor (unknown origin) assessed as inhibition constant
HCT-116 [21] = assay: Induction of apoptosis in human HCT-116 cells assessed as necrotic cells at 5.0 uM measured after 48 hrs by Annexin V-Alexa Fluor 488/propidium iodide staining based flow cytometry (reference value: 9.06%); format: functional
[22] = target: Muscarinic acetylcholine receptor M2 (Homo sapiens, UniProt P08172); assay: Binding affinity to M2 receptor (unknown origin) assessed as inhibition constant
[23] = Clearance in CD-1 mouse plasma at 10 mg/kg, iv; format: ADME, organism-based
MIA PaCa-2 [24] = assay: Induction of cell cycle arrest in human MIA PaCa-2 cells assessed as accumulation of cells in G0/G1 phase at […] measured after 24 hrs by propidium iodide staining-based flow cytometric analysis (reference value: 53%); format: functional; conditions: dose 2.5 µM
HCT-116 [25] = assay: Antagonistic cytotoxicity against human HCT-116 cells at upto 1 uM measured after 6 days in presence of disulfiram by crystal violet staining based analysis; format: functional, cell-based; conditions: time 6.0 day
HCT-116 [26] = assay: Induction of apoptosis in human HCT-116 cells assessed as necrotic cells at 10.0 uM measured after 48 hrs by Annexin V-Alexa Fluor 488/propidium iodide staining based flow cytometry (reference value: 9.06%); format: functional
[27] = Half life in CD-1 mouse plasma at 20 mg/kg, po; format: ADME, organism-based
HCT-116 [28] = assay: Induction of apoptosis in human HCT-116 cells assessed as late apoptotic cells at 10.0 uM measured after 48 hrs by Annexin V-Alexa Fluor 488/propidium iodide staining based flow cytometry (reference value: 8.48%); format: functional
HCT-116 [29] = assay: Induction of cell cycle arrest in human HCT-116 cells assessed as accumulation of cells in G2/M phase at 5 uM measured after 24 hrs by propidium iodide staining-based flow cytometric analysis (reference value: 10%); format: functional
PANC-1 = assay: Induction of autophagy in human PANC-1 cells assessed as upregulation of LC-3 level at 1 to 10 uM measured after 24 hrs; format: functional, cell-based; conditions: dose 1-10 µM
[30] = AUC (0 to infinity) in CD-1 mouse plasma at 10 mg/kg, iv; format: ADME, organism-based; design: dose 10 mg/kg, route iv
MIA PaCa-2 [31] = assay: Synergistic cytotoxicity in human MIA PaCa-2 cells at upto 1 uM measured after 7 days in presence of irinotecan by crystal violet staining based analysis; format: functional, cell-based; conditions: time 7.0 day
[32] = Oral bioavailability in CD-1 mouse plasma at 20 mg/kg; format: ADME, organism-based; conditions: in vivo
HCT-116 [33] = assay: Induction of cell cycle arrest in human HCT-116 cells assessed as accumulation of cells in G0/G1 phase at 5 uM measured after 24 hrs by propidium iodide staining-based flow cytometric analysis (reference value: 43%); format: functional
[34] = Cytotoxicity against HEK293 cells measured after 72 hrs by MTT assay; format: toxicity, cell-based; conditions: human
[35] = Metabolic stability in mouse liver microsomes assessed as half life at 10 uM measured upto 60 mins in presence of NADPH by LC-MS/MS analysis; format: ADME, Microsome; conditions: 1 h
MIA PaCa-2 [36] = assay: Induction of apoptosis in human MIA PaCa-2 cells assessed as viable cells at […] measured after 48 hrs by Annexin V-Alexa Fluor 488/propidium iodide staining based flow cytometry (reference value: 82.23%); format: functional; conditions: dose 2.5 µM, read-out: Activity
MIA PaCa-2 [37] = assay: Induction of apoptosis in human MIA PaCa-2 cells assessed as late apoptotic cells at […] measured after 48 hrs by Annexin V-Alexa Fluor 488/propidium iodide staining based flow cytometry (reference value: 6.63%); format: functional; conditions: dose 2.5 µM

Sequence of Beta-1 adrenergic receptor (P08588 whole entry): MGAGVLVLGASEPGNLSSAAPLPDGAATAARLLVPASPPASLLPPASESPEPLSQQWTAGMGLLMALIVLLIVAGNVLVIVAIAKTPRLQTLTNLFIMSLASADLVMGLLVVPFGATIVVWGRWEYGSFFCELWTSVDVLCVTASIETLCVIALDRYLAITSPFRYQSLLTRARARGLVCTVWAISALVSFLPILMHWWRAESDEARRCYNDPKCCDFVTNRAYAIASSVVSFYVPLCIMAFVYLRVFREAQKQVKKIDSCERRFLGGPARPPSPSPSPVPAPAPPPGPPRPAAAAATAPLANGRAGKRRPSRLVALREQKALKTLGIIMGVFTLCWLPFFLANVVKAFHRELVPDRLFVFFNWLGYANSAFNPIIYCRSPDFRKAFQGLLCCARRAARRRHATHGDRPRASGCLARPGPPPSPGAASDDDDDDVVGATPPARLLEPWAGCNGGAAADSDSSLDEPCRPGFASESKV
Sequence of 5-hydroxytryptamine receptor 1B (P28222 whole entry): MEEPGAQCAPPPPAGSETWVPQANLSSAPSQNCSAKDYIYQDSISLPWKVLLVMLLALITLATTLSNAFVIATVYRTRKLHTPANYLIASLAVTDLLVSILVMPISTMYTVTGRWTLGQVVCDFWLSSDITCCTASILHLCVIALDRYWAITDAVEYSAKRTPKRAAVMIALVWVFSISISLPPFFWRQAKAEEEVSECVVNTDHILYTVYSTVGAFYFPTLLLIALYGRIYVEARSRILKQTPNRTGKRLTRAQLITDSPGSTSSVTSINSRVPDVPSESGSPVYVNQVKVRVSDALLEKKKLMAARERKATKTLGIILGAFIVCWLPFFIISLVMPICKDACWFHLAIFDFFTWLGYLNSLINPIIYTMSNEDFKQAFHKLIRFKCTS
Sequence of 5-hydroxytryptamine receptor 2A (P28223 whole entry): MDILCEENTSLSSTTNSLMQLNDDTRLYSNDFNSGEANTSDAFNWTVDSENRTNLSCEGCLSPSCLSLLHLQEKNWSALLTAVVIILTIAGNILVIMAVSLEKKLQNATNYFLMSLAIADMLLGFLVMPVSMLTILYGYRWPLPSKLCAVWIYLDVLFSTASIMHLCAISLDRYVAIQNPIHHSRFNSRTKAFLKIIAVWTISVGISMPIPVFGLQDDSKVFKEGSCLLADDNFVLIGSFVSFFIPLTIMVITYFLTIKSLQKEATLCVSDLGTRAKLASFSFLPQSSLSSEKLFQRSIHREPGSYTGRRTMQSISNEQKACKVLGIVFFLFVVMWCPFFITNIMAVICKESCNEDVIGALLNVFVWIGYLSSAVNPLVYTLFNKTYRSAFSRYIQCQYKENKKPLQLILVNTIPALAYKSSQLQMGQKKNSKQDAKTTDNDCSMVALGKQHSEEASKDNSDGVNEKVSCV
Sequence of Muscarinic acetylcholine receptor M2 (P08172 whole entry): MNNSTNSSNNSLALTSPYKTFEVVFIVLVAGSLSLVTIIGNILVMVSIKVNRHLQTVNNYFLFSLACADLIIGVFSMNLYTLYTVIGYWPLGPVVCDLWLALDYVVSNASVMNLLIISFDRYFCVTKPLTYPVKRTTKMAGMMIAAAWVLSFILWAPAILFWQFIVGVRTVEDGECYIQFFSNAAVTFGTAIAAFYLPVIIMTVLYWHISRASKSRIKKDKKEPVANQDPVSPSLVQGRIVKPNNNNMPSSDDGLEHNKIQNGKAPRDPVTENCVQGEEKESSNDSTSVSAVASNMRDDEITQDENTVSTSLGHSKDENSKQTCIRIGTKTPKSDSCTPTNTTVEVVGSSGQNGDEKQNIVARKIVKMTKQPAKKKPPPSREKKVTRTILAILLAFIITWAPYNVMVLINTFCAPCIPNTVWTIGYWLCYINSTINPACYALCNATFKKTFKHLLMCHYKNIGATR

## CCN(CC)CCCC(C)Nc1cnc(C(=O)Nc2ccc(Cl)c3cccnc23)cn1 (stereo not drawn)
MIA PaCa-2 [1]
  viability at 5 µM: 32.4%
MIA PaCa-2 [2]
  Activity: 14%
[3]
  pKi: 6.19
MIA PaCa-2 [4]
  Activity: 46%
MIA PaCa-2 [5]
  Activity: inactive
[6]
  pKi: 5.20
HCT-116 [7]
  Activity: 57%
HCT-116 [8]
  Activity: 2.87%
MIA PaCa-2 [9]
  Activity: inactive
MIA PaCa-2 [10]
  Activity: Active
HCT-116 [11]
  Activity: 35%
MIA PaCa-2 [12]
  inhibition: inactive
HCT-116 [13]
  Activity: inactive
[14]
  Vd: 21.4 L/kg
[15]
  IC50 at 72 h: 8 µM
MIA PaCa-2 [16]
  Activity: 22.26%
HCT-116 [17]
  viability at 1 µM: 78.3%
HCT-116 [18]
  Activity: inactive
MIA PaCa-2 [19]
  Activity: inactive
[20]
  pKi: 5.90
HCT-116 [21]
  Activity: 5.1%
[22]
  pKi: 6.17
[23]
  clearance: 62.2 mL/min/kg
MIA PaCa-2 [24]
  Activity: 49%
HCT-116 [25]
  Activity: inactive
HCT-116 [26]
  Activity: 2.37%
[27]
  half-life: 6.1 h
HCT-116 [28]
  Activity: 47.98%
HCT-116 [29]
  Activity: 22%
PANC-1
  Activity: Active
[30]
  AUC(0-inf): 2680 ng·h/mL
MIA PaCa-2 [31]
  Activity: inactive
[32]
  F: 60%
HCT-116 [33]
  Activity: 44%
[34]
  IC50 at 72 h: 1.2 µM
[35]
  t1/2: 1 h
MIA PaCa-2 [36]
  viability at […]: 54.5%
MIA PaCa-2 [37]
  Activity: 25.72%
